The values below come from patent publication US9034865B2, “Pyrido [4,3-B] indole and pyrido [3,4-B] indole derivatives and methods of use” (Medivation Technologies, Inc., priority 2010, dated 2015).

In assay [1] the target is T1, human recombinant serotonin (5-Hydroxytryptamine) 5-HT2A receptor (Homo sapiens, UniProt P28223).
T1 construct: expressed in transfected cells; host or cells: CHO-K1
The experiment in a line: Serotonin 5-HT2A radioligand binding ([3H]Ketanserin). Particulars: compound at 0.1 μM; read-out: Percentage inhibition of ligand binding, Serotonin (0.1 μM) 5-HT2A. As for the experimental part: To evaluate in radioligand binding assays the activity of compounds of the invention, human recombinant serotonin (5-Hydroxytryptamine) 5-HT2A receptor expressed in Chinese hamster ovary (CHO) K1 cells (Bonhaus, D. et al, Br. J. Pharmacol. 115:622, 1995; Saucier, C. et al, J. Neurochem. 68:1998, 1997) in a 50 mM Tris-HCl buffer, pH 7.4, was used. Compounds of the invention were incubated with 0.5 nM [^3H]Ketanserin for 60 min at 25° C. Non-specific binding was estimated in the presence of 1 μM Mianserin. Receptor proteins were filtered and washed, the filters were then counted to determine [^3H]Ketanserin specifically bound. Compounds were screened at 1 μM or lower, using 1% DMSO as vehicle. Biochemical assay results are presented as the percent inhibition of specific binding in Table 4.

The target of assay [2] is T2, human recombinant dopamine D2L receptor (Homo sapiens, UniProt P14416).
T2 construct: expressed in transfected cells; host or cells: CHO
Kind of assay: Dopamine D2L radioligand binding ([3H]Spiperone). As to conditions: compound at 1 μM; read-out: Percentage inhibition of ligand binding, Dopamine (1 μM) D2L. Here is the method: To evaluate in radioligand binding assays the activity of compounds of the invention, human recombinant dopamine D2L receptor expressed in Chinese hamster ovary (CHO) cells (Grandy, D. et al, Proc. Natl. Acad. Sci. USA. 86:9762, 1989; Hayes, G. et al, Mol. Endocrinol. 6:920, 1992) in a modified Tris-HCl buffer (50 mM Tris-HCl, pH 7.4, 1.4 mM Ascorbic Acid, 0.001% BSA, 150 mM NaCl) was used. Compounds of the invention were incubated with 0.16 nM [^3H]Spiperonefor 120 min at 25° C. Non-specific binding was estimated in the presence of 10 μM Haloperidol. Receptor proteins were filtered and washed, the filters were then counted to determine [^3H]Spiperone specifically bound. Compounds were screened at 1 μM or lower, using 1% DMSO as vehicle. Biochemical assay results are presented as the percent inhibition of specific binding in Table 3.

The target in assay [3] is T3, human recombinant histamine H1 receptor (Homo sapiens, UniProt P35367).
T3 construct: expressed in transfected cells; host or cells: CHO-K1
The experiment in a line: Histamine H1 radioligand binding ([3H]Pyrilamine). Particulars: compound at 1 μM; 1.2 nM [3H]Pyrilamine; read-out: Binding data (Percentage inhibition) Histamine H1 (1 μM). Here is the method: To evaluate in radioligand binding assays the activity of compounds of the invention, human recombinant histamine H1 receptor expressed in Chinese hamster ovary (CHO) K1 cells (De Backer, M. et al, Biochem. Biophys. Res. Comm. 197(3):1601, 1993) in a modified Tris-HCl buffer (50 mM Tris-HCl, pH 7.4, 2 mM MgCl2, 100 mM NaCl, 250 mM Sucrose) was used. Compounds of the invention were incubated with 1.2 nM [^3H]Pyrilamine for 180 min at 25° C. Non-specific binding was estimated in the presence of 1 μM Pyrilamine. Receptor proteins were filtered and washed, the filters were then counted to determine [^3H]Pyrilamine specifically bound. Compounds were screened at 1 μM or lower, using 1% DMSO as vehicle. Biochemical assay results are presented as the percent inhibition of specific binding in Table 2.

In assay [4] the target is T4, human recombinant serotonin (5-Hydroxytryptamine) 5-HT7 receptor (Homo sapiens, UniProt P34969).
T4 construct: expressed in transfected cells; host or cells: CHO
Kind of assay: Serotonin 5-HT7 radioligand binding ([3H]LSD). As to conditions: compound at 0.1 μM; read-out: Percentage inhibition of ligand binding, Serotonin (0.1 μM) 5-HT7. As for the experimental part:
To evaluate in radioligand binding assays the activity of compounds of the invention, human recombinant serotonin (5-Hydroxytryptamine) 5-HT7 receptor expressed in Chinese hamster ovary (CHO) cells (Roth, B. et al, J. Pharmacol. Exp. Ther. 268:1403, 1994; Shen, Y. et al, J. Biol. Chem. 268:18200, 1993) in a modified Tris-HCl buffer (50 mM Tris-HCl, pH 7.4, 10 mM MgCl2, 0.5 mM EDTA) was used. Compounds of invention were incubated with 5.5 nM [^3H] Lysergic acid diethylamide (LSD) for 2 h at 25° C. Non-specific binding was estimated in the presence of 10 μM Serotonin (5-HT). Receptor proteins were filtered and washed, the filters were then counted to determine [^3H]LSD specifically bound. Compounds were screened at 1 μM or lower, using 1% DMSO as vehicle. Biochemical assay results are presented as the percent inhibition of specific binding in Table 4.

In assay [5] the target is T5, human recombinant serotonin (5-Hydroxytryptamine) 5-HT6 receptor (Homo sapiens, UniProt P50406).
T5 construct: expressed in transfected cells; host or cells: HeLa
The experiment in a line: Serotonin 5-HT6 radioligand binding ([3H]LSD). Particulars: compound at 0.1 μM; read-out: Percentage inhibition of ligand binding, Serotonin (0.1 μM) 5-HT6. As for the experimental part:
To evaluate in radioligand binding assays the activity of compounds of the invention, human recombinant serotonin (5-Hydroxytryptamine) 5-HT6 receptor expressed in human HeLa cells (Monsma, F. Jr. et al, Mol. Pharmacol. 43:320, 1993) in a modified Tris-HCl buffer (50 mM Tris-HCl, pH 7.4, 150 mM NaCl, 2 mM Ascorbic Acid, 0.001% BSA) was used. Compounds of the invention were incubated with 1.5 nM [3H]Lysergic acid diethylamide (LSD) for 120 min at 37° C. Non-specific binding was estimated in the presence of 5 μM Serotonin (5-HT). Receptor proteins were filtered and washed, the filters were then counted to determine [3H]LSD specifically bound. Compounds were screened at 1 μM or lower, using 1% DMSO as vehicle. Biochemical assay results are presented as the percent inhibition of specific binding in Table 4.

For assay [6], the target named is T6, human recombinant serotonin (5-Hydroxytryptamine) 5-HT2C receptor (Homo sapiens, UniProt P28335).
T6 construct: expressed in transfected cells; host or cells: CHO-K1
T6 sequence (P28335 33-458): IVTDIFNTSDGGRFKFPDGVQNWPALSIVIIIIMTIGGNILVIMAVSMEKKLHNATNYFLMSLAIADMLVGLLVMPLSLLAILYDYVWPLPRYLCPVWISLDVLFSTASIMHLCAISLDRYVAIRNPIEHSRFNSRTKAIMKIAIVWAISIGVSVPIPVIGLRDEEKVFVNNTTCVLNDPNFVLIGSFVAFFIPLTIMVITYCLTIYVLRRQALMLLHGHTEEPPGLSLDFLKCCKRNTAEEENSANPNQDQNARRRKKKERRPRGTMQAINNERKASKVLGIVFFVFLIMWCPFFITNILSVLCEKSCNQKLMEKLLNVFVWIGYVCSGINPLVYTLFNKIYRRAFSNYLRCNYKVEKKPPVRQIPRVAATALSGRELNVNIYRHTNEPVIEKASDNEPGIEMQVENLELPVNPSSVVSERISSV
The experiment in a line: Serotonin 5-HT2C radioligand binding ([3H]Mesulergine). As to conditions: compound at 0.1 μM; read-out: Percentage inhibition of ligand binding, Serotonin (0.1 μM) 5-HT2C. As for the experimental part: To evaluate in radioligand binding assays the activity of compounds of the invention, human recombinant serotonin (5-Hydroxytryptamine) 5-HT2C receptor expressed in Chinese hamster ovary (CHO) K1 cells (Wolf, W. et al, J. Neurochem. 69:1449, 1997) in a modified Tris-HCl buffer (50 mM Tris-HCl, pH 7.4, 0.1% Ascorbic Acid, 10 μM Pargyline) was used. Compounds of the invention were incubated with 1 nM [^3H]Mesulergine for 60 min at 25° C. Non-specific binding was estimated in the presence of 1 μM Mianserin. Receptor proteins were filtered and washed, the filters were then counted to determine [^3H]Mesulergine specifically bound. Compounds were screened at 1 μM or lower, using 1% DMSO as vehicle. Biochemical assay results are presented as the percent inhibition of specific binding in Table 4.

T5 sequence (P50406 whole entry): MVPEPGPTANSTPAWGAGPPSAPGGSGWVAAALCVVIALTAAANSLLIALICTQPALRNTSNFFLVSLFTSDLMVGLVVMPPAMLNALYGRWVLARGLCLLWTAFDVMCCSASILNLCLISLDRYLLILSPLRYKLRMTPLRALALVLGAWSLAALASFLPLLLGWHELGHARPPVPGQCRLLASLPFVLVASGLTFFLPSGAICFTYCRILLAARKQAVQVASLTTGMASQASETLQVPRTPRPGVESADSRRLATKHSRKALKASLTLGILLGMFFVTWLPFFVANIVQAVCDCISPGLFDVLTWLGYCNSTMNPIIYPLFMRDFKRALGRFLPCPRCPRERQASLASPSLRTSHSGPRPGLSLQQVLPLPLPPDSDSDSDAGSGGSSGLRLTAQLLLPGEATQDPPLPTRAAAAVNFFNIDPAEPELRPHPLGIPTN
T2 sequence (P14416 whole entry): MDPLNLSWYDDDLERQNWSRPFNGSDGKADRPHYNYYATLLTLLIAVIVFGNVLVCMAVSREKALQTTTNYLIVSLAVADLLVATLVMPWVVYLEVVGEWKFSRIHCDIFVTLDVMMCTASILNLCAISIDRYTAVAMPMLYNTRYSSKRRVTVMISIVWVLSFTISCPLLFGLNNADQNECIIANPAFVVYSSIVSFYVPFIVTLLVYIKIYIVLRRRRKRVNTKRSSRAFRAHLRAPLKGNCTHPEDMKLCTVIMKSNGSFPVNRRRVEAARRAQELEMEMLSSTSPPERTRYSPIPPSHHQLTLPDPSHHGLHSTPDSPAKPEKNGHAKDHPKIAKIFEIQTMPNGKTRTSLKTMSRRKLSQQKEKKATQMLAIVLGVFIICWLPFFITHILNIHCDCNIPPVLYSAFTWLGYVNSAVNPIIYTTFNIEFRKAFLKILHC
T4 sequence (P34969 whole entry): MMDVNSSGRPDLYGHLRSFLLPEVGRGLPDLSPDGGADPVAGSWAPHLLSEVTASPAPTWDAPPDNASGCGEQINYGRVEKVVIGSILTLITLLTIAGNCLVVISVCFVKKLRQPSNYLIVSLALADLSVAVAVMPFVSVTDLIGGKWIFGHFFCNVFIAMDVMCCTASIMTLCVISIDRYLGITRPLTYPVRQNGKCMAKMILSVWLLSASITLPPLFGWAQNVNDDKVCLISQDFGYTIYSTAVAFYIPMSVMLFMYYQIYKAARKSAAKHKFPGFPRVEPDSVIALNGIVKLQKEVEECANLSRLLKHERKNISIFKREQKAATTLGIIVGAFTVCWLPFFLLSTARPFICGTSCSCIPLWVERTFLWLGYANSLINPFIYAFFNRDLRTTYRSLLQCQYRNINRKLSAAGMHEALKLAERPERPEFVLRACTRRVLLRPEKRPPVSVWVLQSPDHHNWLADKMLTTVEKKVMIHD
T1 sequence (P28223 whole entry): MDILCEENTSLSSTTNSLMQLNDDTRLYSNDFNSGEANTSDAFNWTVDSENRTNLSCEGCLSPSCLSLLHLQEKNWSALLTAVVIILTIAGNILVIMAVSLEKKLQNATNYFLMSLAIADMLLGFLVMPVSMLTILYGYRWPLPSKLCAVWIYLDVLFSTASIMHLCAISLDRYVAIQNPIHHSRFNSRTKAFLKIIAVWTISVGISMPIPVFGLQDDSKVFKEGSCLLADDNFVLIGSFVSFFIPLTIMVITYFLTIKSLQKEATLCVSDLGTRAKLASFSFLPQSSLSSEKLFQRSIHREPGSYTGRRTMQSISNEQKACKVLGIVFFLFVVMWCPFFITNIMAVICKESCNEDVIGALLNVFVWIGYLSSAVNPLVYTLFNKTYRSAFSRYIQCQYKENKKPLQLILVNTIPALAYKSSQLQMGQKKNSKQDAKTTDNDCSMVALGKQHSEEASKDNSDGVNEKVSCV
T3 sequence (P35367 whole entry): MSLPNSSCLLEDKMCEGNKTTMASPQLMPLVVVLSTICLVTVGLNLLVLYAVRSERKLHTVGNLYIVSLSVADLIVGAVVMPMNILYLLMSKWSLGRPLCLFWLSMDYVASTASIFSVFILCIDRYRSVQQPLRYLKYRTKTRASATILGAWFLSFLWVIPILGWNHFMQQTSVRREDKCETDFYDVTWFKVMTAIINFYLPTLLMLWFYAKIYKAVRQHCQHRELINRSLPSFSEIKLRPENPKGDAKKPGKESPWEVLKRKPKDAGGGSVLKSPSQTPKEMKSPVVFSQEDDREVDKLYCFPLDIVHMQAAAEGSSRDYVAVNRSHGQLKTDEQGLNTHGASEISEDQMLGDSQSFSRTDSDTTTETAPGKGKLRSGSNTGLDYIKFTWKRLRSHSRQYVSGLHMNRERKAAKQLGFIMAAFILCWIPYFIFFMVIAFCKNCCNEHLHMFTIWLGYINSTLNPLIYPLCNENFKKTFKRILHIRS

The inhibition is the change of the read-out against control, counted positive when it falls. `CN1CCc2[nH]c3c(N(C)Cc4ccccc4)cccc3c2C1` [Compound 1, benzyl-methyl-(2-methyl-2,3,4,5-tetrahydro-1H-pyrido[4,3-b]indol-6-yl)-amine]: the inhibition at 0.1 µM in assay [1] was 73%; in assay [4], 9%; in assay [5], 44%; in assay [6], 55%. The values for the inhibition at 1 µM in assay [2] and in assay [3] were 21% and 6%, respectively.
Consider `Cc1cc(CCc2ccc(C)nc2)c2[nH]c3c(c2c1)CN(C)CC3` [Compound 2], for which the inhibition at 0.1 µM was determined as 6% in assay [1], 17% in assay [4], 4% in assay [5] and 36% in assay [6]. In addition, the inhibition at 1 µM amounted to 6% in assay [2] and 58% in assay [3].
With `CN1CCc2[nH]c3c(NCc4ccccc4)cccc3c2C1` [Compound 3], the inhibition at 0.1 µM in assay [1] is 40%; in assay [4] it was 14%; in assay [5] it was 13%; in assay [6], 41%. The inhibition at 1 µM was found to be 19% in assay [2] and 14% in assay [3].
Consider `CN1CCc2[nH]c3c(NCc4ccncc4)cccc3c2C1` [Compound 4], for which the inhibition at 0.1 µM was -7% in assay [1], -10% in assay [4], 2% in assay [5] and 7% in assay [6]. Further, the figures for the inhibition at 1 µM in assay [2] and in assay [3] were 5% and 15%, respectively.
As for `Cc1cc(C#Cc2ccncc2)c2[nH]c3c(c2c1)CN(C)CC3` [Compound 5], the inhibition at 0.1 µM in assay [1] worked out at 54%; in assay [4], 45%; in assay [5] it was 30%; in assay [6] it was 45%. The inhibition at 1 µM in assay [2] came to 10%; in assay [3], 17%.
As for `Cc1cc(C#Cc2ccc(C)nc2)c2[nH]c3c(c2c1)CN(C)CC3` [Compound 6, 2,8-dimethyl-6-((6-methylpyridin-3-yl)ethynyl)-2,3,4,5-tetrahydro-1H-pyrido[4,3-b]indole], the inhibition at 0.1 µM came out at 41% in assay [1], 43% in assay [4], 24% in assay [5] and 55% in assay [6]. In addition, the inhibition at 1 µM in assay [2] was determined as 7%; in assay [3], 16%.
